From patent publication US20220041641A1, “QUATERNARY AMMONIUM SALTS AS INHIBITORS OF TRIMETHYLAMINE PRODUCTION” (Senda Biosciences, Inc., priority 2018, published 2022)
Values joined by “and” are separate entries in the source; they are usually repeats but may differ in a detail not shown here. Identical values can stand only once. Like-named read-outs stand apart in the source and are kept apart here.

Assays:
[1] = Caco-2 permeability assay; type: in vitro ADME; details: human
Description: Preparation of Caco-2 Cells: 50 μL and 25 mL of cell culture medium were added to each well of the Transwell insert and reservoir, respectively. The HTS transwell plates were incubated at 37° C., 5% CO2 for 1 hour before cell seeding. […] Cell culture medium was replaced every other day, beginning no later than 24 hours after initial plating.
Assessment of Cell Monolayer Integrity: Medium was removed from the reservoir and each Transwell insert and replaced with prewarmed fresh culture medium. Transepithelial electrical resistance (TEER) across the monolayer was measured using Millicell Epithelial Volt-Ohm measuring system (Millipore, USA). The Plate was returned to the incubator once the measurement was done. The TEER value was calculated according to the following equation: […]
Preparation of Solutions: 2 mM stock solutions in DMSO of control compounds were prepared and diluted with HBSS (10 mM HEPES, pH 7.4) to get 10 μM working solution. 0.2 mM stock solutions of test compounds in DMSO were prepared and diluted with HBSS (10 mM HEPES, pH 7.4 with 0.5% BSA) to get 1 μM working solution. Metoprolol, erythromycin and cimetidine were used as control compounds.
The Caco-2 plate was removed from the incubator. The monolayer was washed twice with pre-warmed HBSS (10 mM HEPES, pH 7.4). The plate was incubated at 37° C. for 30 minutes. To determine the rate of drug transport in the apical to basolateral direction, 125 μL of the working solution was added to the Transwell insert (apical compartment). A 50 μL sample was transferred immediately from the apical compartment to 200 μL of acetonitrile containing IS (100 nM alprazolam, 200 nM Caffeine and 100 nM tolbutamide) in a new 96-well plate as the initial donor sample (A-B) and it was vortexed at 1000 rpm for 10 minutes. The wells in the receiver plate (basolateral compartment) were filled with 235 μL of transport buffer. To determine the rate of drug transport in the basolateral to apical direction, 285 μL of the working solution were added to the receiver plate wells (basolateral compartment). A 50 μL sample was transferred immediately from the basolateral compartment to 200 μL of acetonitrile containing IS (100 nM alprazolam, 200 nM Caffeine and 100 nM tolbutamide) in a new 96-well plate as the initial donor sample (B-A) and it was vortexed at 1000 rpm for 10 minutes. The Transwell insert (apical compartment) was filled with 75 μL of transport buffer. The apical to basolateral direction and the basolateral to apical direction need to be done at the same time. The plates were incubated at 37° C. for 2 hours. At the end of the incubation, 50 μL samples from donor sides (apical compartment for Ap→Bl flux, and basolateral compartment for B1→Ap) and receiver sides (basolateral compartment for Ap→Bl flux, and apical compartment for B1→Ap) were transferred to wells of a new 96-well plate, followed by the addition of 4 volume of acetonitrile containing IS (100 nM alprazolam, 200 nM Caffeine and 100 nM tolbutamide). Samples were vortexed for 10 minutes, 50 μL samples were transferred to wells of a new 96-well plate, followed by the addition of 50 μL Hepes and 200 μL IS. All samples were vortexed for 10 minutes, and then centrifuged at 3,220 g for 40 minutes. An aliquot of 150 μL of the supernatant was mixed with an appropriate volume of ultra-pure water before LC-MS/MS analysis.
Apparent permeability (Papp) can be calculated for drug transport assays using the following equation: […]
Papp is apparent permeability (cm/s×10^−6);
Papp (B-A) indicates the apparent permeability coefficient in basolateral to apical direction, and
Papp (A-B) indicates the apparent permeability coefficient in apical to basolateral direction.

[2] = target: CutC from Proteus mirabilis (Proteus mirabilis, UniProt B4EYG1); assay: Cell-based assay for TMA production from a native producer (P. mirabilis); details: d9-TMA from 1 mM d9-choline, 5 h, 37° C.; value 10 given when no fit or % TMA remaining at 10 μM higher than 15%; read-out: Average IC50 Whole cell P. mirabilis
Method in brief: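 Overnight anaerobic cultures of P. mirabilis or C. sporogenes, grown in BHI with 1 mM choline, were diluted and given 1 mM (trimethyl-d9)-choline plus compound at 10 μM final. After 5 h at 37° C., d9-TMA was quantified by LCMS.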

[3] = target: CutC from Clostridium sporogenes (Clostridium sporogenes, UniProt A0AAE4Z0A8); assay: Cell-based assay for TMA production from a native producer (C. sporogenes); details: read-out: IC50 Whole cell C. sporogenes; d9-TMA from 1 mM d9-choline, 5 h, 37° C.; run once; value 10 given when no fit or % TMA remaining at 10 μM higher than 15%
Description: In each bacterium, CutC was modified into its activated form by a cognate activating enzyme, CutD (protein EDU36696.1 for C. sporogenes; protein WP_004249185.1 for P. mirabilis). […] Trimethylamine may subsequently be converted by human enzymes such as flavin monooxygenase 3 to trimethylamine N-oxide, which might be associated with negative health consequences in humans.
A compound's ability to inhibit CutC from Proteus mirabilis and C. sporogenes from converting choline into trimethylamine was tested in cells as described. A BHI blood plate was inoculated with a frozen stock of Proteus mirabilis or Clostridium sporogenes under anaerobic conditions. A single colony was isolated from the plate and inoculated into 5 mL BHI supplemented with 1 mM choline under anaerobic conditions. The liquid cultures were grown overnight at 37° C.
To prepare each sample, 300 μL of the saturated culture was then inoculated into a 30 mL dilution blank under anaerobic conditions. 1 mM (trimethyl-d9)-choline and a sufficient amount of a compound to obtain a final concentration of 10 μM were added to the inoculated dilution blank. […] The mixture was incubated at 37° C. for 5 h. […] After centrifugation, the samples were analyzed by LCMS to determine the amount of d9-TMA produced.

[4] = test system: CutC/D enzyme; assay: Acute mouse model (plasma TMAO on choline diet); type: in vivo, male C57BL/6 mice
Description: The following acute mouse model may be used to determine inhibition of the CutC/D enzyme and thus the inhibition of the formation of trimethylamine (TMA) from choline.
On day 1, male C57BL/6 mice were given a chemically defined diet (Tekland Global Rodent Diet 2018) containing 1.0% choline (g/g) for the duration of the experiment. Concurrently on day 1, mice were orally gavaged with 200 μL of compounds of interest (formulated in water). Mice were orally gavaged with the compounds and vehicle control again on day 2 and day 3 at a fixed time. Twenty hours after the last gavage, mice were sacrificed, and plasma was collected and prepared for detection of trimethylamine-N-oxide (TMAO) via liquid chromatography with on-line tandem mass spectrometry (LC-MS/MS). Food consumption and mouse weight were measured each day.
Plasma samples were prepared for LCMS as follows: An aliquot of 20 μL plasma sample was protein precipitated with 200 μL internal standard solution (100 ng/mL Labetalol & 100 ng/mL Tolbutamide & 100 ng/mL Diclofenac in acetonitrile, the mixture was vortex-mixed and centrifuged at 4000 rpm for 15 min, 4° C. An aliquot of 100 μL supernatant was transferred to the sample plate for LCMS injection. 1 μL of sample was injected onto an LC column for TMAO LCMS analysis.
Concentrations of TMAO were determined with a calibration curve ranging 0.05-100 μM for d9-TMAO in control plasma.

Chain of CutC from Proteus mirabilis (B4EYG1 entry or part of it): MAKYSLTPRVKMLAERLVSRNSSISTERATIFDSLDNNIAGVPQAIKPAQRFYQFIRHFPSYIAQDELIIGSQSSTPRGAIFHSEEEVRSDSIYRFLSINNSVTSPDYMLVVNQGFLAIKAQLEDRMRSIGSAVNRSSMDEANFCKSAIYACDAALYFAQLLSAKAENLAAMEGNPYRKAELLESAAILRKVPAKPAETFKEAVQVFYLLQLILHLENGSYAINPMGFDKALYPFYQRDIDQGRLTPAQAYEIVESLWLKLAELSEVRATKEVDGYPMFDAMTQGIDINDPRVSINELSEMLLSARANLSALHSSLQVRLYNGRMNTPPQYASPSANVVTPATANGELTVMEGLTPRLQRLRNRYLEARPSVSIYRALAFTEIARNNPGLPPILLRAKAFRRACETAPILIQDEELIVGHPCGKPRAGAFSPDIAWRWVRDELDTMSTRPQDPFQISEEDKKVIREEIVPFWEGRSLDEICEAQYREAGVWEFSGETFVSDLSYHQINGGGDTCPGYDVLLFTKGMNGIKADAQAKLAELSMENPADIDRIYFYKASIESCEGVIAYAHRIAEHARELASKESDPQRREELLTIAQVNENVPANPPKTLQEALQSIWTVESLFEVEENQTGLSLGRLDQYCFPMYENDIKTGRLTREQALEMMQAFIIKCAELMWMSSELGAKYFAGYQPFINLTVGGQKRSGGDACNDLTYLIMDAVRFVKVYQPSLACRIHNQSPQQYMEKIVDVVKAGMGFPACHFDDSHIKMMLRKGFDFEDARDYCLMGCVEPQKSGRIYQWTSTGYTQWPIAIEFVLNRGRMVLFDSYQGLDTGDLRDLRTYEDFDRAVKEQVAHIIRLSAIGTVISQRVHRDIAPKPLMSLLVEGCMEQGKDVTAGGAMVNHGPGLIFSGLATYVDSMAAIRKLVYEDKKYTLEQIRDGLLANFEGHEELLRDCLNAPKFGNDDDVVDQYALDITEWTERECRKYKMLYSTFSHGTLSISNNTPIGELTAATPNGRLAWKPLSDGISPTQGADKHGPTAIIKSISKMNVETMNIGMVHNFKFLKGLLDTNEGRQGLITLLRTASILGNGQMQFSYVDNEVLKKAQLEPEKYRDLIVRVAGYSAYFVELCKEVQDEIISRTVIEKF
Chain of CutC from Proteus mirabilis (B4EYG0 entry or part of it, further chain): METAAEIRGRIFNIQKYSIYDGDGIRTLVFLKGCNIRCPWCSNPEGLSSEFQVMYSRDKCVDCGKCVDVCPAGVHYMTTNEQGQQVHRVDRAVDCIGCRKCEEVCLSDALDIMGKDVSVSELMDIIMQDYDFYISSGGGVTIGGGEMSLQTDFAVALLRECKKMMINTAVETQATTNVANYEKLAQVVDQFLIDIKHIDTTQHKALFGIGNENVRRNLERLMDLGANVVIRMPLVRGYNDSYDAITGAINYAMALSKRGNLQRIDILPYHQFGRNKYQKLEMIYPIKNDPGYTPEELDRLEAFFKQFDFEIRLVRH
Chain of CutC from Clostridium sporogenes (A0ABD6RTF0 entry or part of it): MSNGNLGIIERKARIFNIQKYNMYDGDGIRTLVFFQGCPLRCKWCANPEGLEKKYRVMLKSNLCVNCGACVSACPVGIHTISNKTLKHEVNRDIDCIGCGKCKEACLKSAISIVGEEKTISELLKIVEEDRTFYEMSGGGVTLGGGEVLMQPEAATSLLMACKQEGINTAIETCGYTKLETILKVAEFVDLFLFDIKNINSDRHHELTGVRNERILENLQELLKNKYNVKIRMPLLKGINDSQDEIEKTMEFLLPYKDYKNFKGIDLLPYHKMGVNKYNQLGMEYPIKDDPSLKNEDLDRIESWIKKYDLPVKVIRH
Chain of CutC from Clostridium sporogenes (A0AAE4Z0A8 entry or part of it): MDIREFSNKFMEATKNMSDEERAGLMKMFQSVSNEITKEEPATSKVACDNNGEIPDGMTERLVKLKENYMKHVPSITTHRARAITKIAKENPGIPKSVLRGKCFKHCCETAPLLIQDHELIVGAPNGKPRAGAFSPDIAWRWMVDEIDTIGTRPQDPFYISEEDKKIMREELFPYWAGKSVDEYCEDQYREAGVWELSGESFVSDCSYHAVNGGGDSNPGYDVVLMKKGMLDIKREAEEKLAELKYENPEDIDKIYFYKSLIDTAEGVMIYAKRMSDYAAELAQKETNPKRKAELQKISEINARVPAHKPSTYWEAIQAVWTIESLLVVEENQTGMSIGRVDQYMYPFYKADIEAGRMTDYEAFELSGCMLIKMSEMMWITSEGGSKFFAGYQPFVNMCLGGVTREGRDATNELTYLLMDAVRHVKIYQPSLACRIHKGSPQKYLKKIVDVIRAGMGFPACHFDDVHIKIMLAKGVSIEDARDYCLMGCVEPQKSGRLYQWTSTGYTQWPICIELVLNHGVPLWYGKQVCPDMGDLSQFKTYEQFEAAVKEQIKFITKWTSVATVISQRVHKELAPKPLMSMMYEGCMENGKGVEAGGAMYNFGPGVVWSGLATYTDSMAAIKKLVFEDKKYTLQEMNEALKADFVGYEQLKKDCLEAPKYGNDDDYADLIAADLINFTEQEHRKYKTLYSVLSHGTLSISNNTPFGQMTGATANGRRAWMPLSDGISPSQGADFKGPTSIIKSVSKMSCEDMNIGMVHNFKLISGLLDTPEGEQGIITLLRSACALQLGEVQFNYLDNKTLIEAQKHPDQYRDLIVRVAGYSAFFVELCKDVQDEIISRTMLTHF

C[N+](C)(CCO)C1CC1.[I-] [Compound 111, N-(2-hydroxyethyl)-N,N-dimethylcyclopropanaminium Iodide]
Papp A→B at 2 h, 1 µM ([1]; Caco-2, pH 7.4): 0.8 ×10⁻⁶ cm/s
Papp B→A at 2 h, 1 µM ([1]; Caco-2, pH 7.4): 0.8 ×10⁻⁶ cm/s
IC50 [2]: 140 nM and 270 nM
IC50 [3]: 220 nM

C#CC[N+]1(C)CCCN1.[I-] (centres unmarked) [Compound 125, 1-methyl-1-(prop-2-yn-1-yl)pyrazolidin-1-ium Iodide]
Papp A→B at 2 h, 1 µM ([1]; Caco-2, pH 7.4): 0.466 ×10⁻⁶ cm/s
Papp B→A at 2 h, 1 µM ([1]; Caco-2, pH 7.4): 0.482 ×10⁻⁶ cm/s
IC50 [2]: 190 nM
% change from vehicle control + choline diet ([4]; Table 4g, 9.8 mg/kg oral gavage days 1-3): −6%
Mean plasma TMAO ([4]; Table 4g, 9.8 mg/kg oral gavage days 1-3, plasma 20 h after last gavage): 26.2 µM
% change from vehicle control + choline diet ([4]; Table 4g, 97.7 mg/kg oral gavage days 1-3): 18%
Mean plasma TMAO ([4]; Table 4g, 97.7 mg/kg oral gavage days 1-3, plasma 20 h after last gavage): 32.8 µM

C#CC[N+](C)(C)CCO.[Br-] [Compound J60, N-(2-hydroxyethyl)-N,N-dimethylprop-2-yn-1-aminium Iodide]
Papp A→B at 2 h, 1 µM ([1]; pH 7.4, Caco-2, apical to basolateral, 1 μM, 2 hours, 37° C., read-out: Papp A-B): 11.1 ×10⁻⁶ cm/s
Papp B→A at 2 h, 1 µM ([1]; pH 7.4, Caco-2, basolateral to apical, 1 μM, 2 hours, 37° C., read-out: Papp B-A): 6.23 ×10⁻⁶ cm/s
% change from vehicle control + choline diet ([4]; Table 4a, 10 mg/kg oral gavage days 1-3): −28.46%
Mean plasma TMAO ([4]; Table 4a, 10 mg/kg oral gavage days 1-3, plasma 20 h after last gavage): 31.06 µM
% change from vehicle control + choline diet ([4]; Table 4a, 33 mg/kg oral gavage days 1-3): −60.39%
Mean plasma TMAO ([4]; Table 4a, 33 mg/kg oral gavage days 1-3, plasma 20 h after last gavage): 17.20 µM
% change from vehicle control + choline diet ([4]; Table 4a, 100 mg/kg oral gavage days 1-3): −87.29%
Mean plasma TMAO ([4]; Table 4a, 100 mg/kg oral gavage days 1-3, plasma 20 h after last gavage): 5.52 µM
Mean plasma TMAO ([4]; Table 4b, 10 mg/kg oral gavage days 1-3, plasma 20 h after last gavage, 10 mg/kg): 27.4 µM and 24.7 µM
% change from vehicle control + choline diet ([4]; Table 4c, 100 mg/kg oral gavage days 1-3): −74.22%
Mean plasma TMAO ([4]; Table 4c, 100 mg/kg oral gavage days 1-3, plasma 20 h after last gavage): 5.41 µM
% change from vehicle control + choline diet ([4]; Table 4e, 100 mg/kg oral gavage days 1-3): −86%
Mean plasma TMAO ([4]; Table 4e, 100 mg/kg oral gavage days 1-3, plasma 20 h after last gavage): 3.81 µM
% change from vehicle control + choline diet ([4]; Table 4f, 100 mg/kg oral gavage days 1-3): −81%
Mean plasma TMAO ([4]; Table 4f, 100 mg/kg oral gavage days 1-3, plasma 20 h after last gavage): 6.20 µM
% change from vehicle control + choline diet ([4]; Table 4g, 100 mg/kg oral gavage days 1-3): −53%
Mean plasma TMAO ([4]; Table 4g, 100 mg/kg oral gavage days 1-3, plasma 20 h after last gavage): 13.1 µM
% change from vehicle control + choline diet ([4]; Table 4h, 100 mg/kg oral gavage days 1-3): −80%
Mean plasma TMAO ([4]; Table 4h, 100 mg/kg oral gavage days 1-3, plasma 20 h after last gavage): 8.72 µM
% change from vehicle control + choline diet ([4]; Table 4d, 100 mg/kg oral gavage days 1-3): −68%
Mean plasma TMAO ([4]; Table 4d, 100 mg/kg oral gavage days 1-3, plasma 20 h after last gavage): 6.00 µM
